In article PMC7013731, “Elucidating the Structural Basis of the Intracellular pH Sensing Mechanism of TASK-2 K2P Channels” (International Journal of Molecular Sciences, 2020) one finds IC50 and pKa data, which are given here for two compounds.

Series [1] has as its target T1, TASK-2 (Mus musculus, UniProt Q9JK62).
T1 construct: gene Kcnk5; full-length TASK-2 plasmid transiently expressed in HEK-293 cells with separate GFP marker plasmid; homodimer
T1 sequence (Q9JK62 1-502): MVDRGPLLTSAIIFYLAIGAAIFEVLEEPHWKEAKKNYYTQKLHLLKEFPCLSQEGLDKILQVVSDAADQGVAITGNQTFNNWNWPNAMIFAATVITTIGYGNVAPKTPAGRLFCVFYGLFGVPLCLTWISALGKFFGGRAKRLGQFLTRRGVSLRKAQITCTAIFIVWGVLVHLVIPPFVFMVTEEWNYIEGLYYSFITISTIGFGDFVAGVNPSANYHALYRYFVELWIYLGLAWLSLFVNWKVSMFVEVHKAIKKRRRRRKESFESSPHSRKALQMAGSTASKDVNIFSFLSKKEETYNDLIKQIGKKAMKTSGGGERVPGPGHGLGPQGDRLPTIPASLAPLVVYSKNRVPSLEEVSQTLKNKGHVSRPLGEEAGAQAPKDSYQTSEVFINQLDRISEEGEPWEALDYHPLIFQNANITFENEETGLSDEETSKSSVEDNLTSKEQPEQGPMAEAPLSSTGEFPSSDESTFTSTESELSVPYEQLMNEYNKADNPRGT
Briefly: whole-cell patch clamp, transfected HEK-293 cells. It counts as cell-based. On the technique in general: Patch clamp records ionic current or voltage across a cell membrane.

Series [2] addresses Lys245 (UniProt position 245, LFVNWKVSMFV). Briefly: electrophysiology. As to conditions: wild-type channel, gating by intracellular pH (pHi); cited from earlier work.

The term IC50 denotes the concentration needed to halve the response being measured. In series [1], `NCCC(Oc1ccc(C(F)(F)F)cc1)c1ccccc1` (racemic) [norfluoxetine] registered an IC50 of 17 ± 5 µM.

By pKa is commonly meant the negative logarithm of the acid dissociation constant. For “TASK-2 (K2P5.1, TWIK-related acid-sensitive K+ channel 2) (Mus musculus (inferred from GenBank AF319542; species not stated in the article))”, in series [2], the pKa is reported as roughly 8.0.
